Source: patent US20170354639A1, “DITERPENOID DERIVATIVES AND METHODS OF USE THEREOF” (Biogen MA Inc., priority 2014, published 2017)

Biological target: Nrf2-Keap1 (Homo sapiens, UniProt Q14145)
Experiment: DiscoveRx PathHunter Nrf2-Keap1 nuclear translocation functional assay (agonist format)
Format: cell-based
Details: in duplicate, agonist mode; for EC50: 10 concentrations, 3-fold serial dilutions, 30 μM top concentration, normalized to CDDO methyl ester and vehicle; for activation at 10 µM: single concentration of 10 μM, normalized to control ligand (CDDO methyl ester) and vehicle
Experimental: DiscoveRx PathHunter® Nrf2-Keap1 Functional Assay
DiscoveRx's Nrf2-Keapl translocation assay was used to profile compounds. Primary Screening was performed in duplicate at a single concentration of 10 μM and EC50 determinations were performed in duplicate at 10 concentrations with 3-fold serial dilutions at a 30 μM top concentration or an otherwise specified top concentration.
The PathHunter® Nuclear Translocation assay detects translocation of a target protein to, or from, the nucleus. In this system, Prolink™ (PK), a small enzyme fragment, is fused to the protein of interest and Enzyme Acceptor (EA) is localized in the nucleus. Activation of the signaling pathway induces the target protein to either transit into the nucleus, thus forcing complementation of the PK and EA fragments, or out of the nucleus, hindering complementation of the fragments.
Cell handling: PathHunter Pathway cell lines were expanded from freezer stocks according to standard procedures. 5000 cells were seeded in Cell Plating Reagent 0 (containing 1% FBS) to a total volume of 20 μL into white walled, 384-well microplates and incubated for the overnight prior to testing.
Agonist format: For Agonist determination, cells were incubated with sample to induce response. Dilution of sample stocks was performed to generate 100× sample in DMSO. Intermediate dilution of sample stocks was performed to generate 5× sample in assay buffer (Cell Plating Reagent 0 containing 1% FBS). 5 μL of 5× sample was added to cells and incubated at room temperature for 6 hours. Vehicle concentration was 1%.
Signal detection: Assay signal was generated through a single addition of 25 μL (100% v/v) of PathHunter Flash Detection reagent, followed by a one hour incubation at room temperature. Microplates were read following signal generation with a PerkinElmer Envision™ instrument for chemiluminescent signal detection.
Data analysis: Compound activity was analyzed using CBIS data analysis suite (ChemInnovation, CA). For agonist mode assays, percentage activity was calculated using the following formula: % Activity=100%×(mean RLU of test sample−mean RLU of vehicle control)/(mean MAX RLU control ligand−mean RLU of vehicle control). For EC50 determination, a control agonist dose response curve was generated in the Keap 1-Nrf2 biosensor assay, data was normalized to the maximal and minimal response observed in the presence of the control ligand and vehicle respectively. CDDO methyl ester was used as a control compound. Compounds were tested in the agonist mode of the assay and data was normalized to the maximal and minimal response observed in the presence of control ligand and vehicle.

Sequence of Nrf2-Keap1 (Q14145 whole entry): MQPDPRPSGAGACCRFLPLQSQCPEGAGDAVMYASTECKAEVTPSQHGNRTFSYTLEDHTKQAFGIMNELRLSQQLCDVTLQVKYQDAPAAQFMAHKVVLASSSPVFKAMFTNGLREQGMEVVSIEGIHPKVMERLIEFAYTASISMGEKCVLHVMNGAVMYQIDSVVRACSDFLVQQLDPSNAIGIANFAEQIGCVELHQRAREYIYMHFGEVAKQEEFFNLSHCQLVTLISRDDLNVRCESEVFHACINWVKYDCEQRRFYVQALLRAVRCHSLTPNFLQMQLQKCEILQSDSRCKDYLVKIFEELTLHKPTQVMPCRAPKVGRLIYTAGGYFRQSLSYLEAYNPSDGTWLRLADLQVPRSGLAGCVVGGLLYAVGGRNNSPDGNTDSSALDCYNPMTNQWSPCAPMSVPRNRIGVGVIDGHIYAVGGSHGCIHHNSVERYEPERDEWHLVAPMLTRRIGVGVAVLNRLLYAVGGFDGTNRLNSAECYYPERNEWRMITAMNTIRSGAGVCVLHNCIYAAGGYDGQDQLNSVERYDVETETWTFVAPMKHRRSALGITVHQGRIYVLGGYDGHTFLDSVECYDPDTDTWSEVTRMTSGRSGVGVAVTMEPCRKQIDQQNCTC

SMILES | EC50 | activation at 10 µM (6 h) | activation at 10 µM (6 hours)
C=C1CC[C@@H]2[C@]3(C)COCO[C@@H]3CC[C@@]2(C)[C@@H]1C/C=C1/C(=O)OCC1NC(=O)COC (single isomer, unassigned) [Example 46B] | > 2000 nM | – | –
C=C1CC[C@@H]2[C@@H](C)[C@](O)(C(F)(F)F)CC[C@@]2(C)[C@@H]1C/C=C1/C(=O)OCC1NC=O (single isomer, unassigned) [Example 44A] | > 2000 nM | – | –
CC1(C)CCC[C@@]2(C)[C@H]1CCC1(CC1)[C@@H]2C/C=C1/C(=O)OC[C@H]1NC=O [Example 24, N—((S,E)-5-oxo-4-(2-((1′S,4a′S,8a′S)-5′,5′,8a′-trimethyloctahydro-1′H-spiro[cyclopropane-1,2′-naphthalen]-1′-yl)ethylidene)tetrahydrofuran-3-yl)formamide] | – | 51 to 100% | –
C=C1CC[C@@H]2[C@@H](C)[C@H](OC)CC[C@@]2(C)[C@@H]1C/C=C1/C(=O)OC[C@H]1O [Example 16, (S,E)-4-hydroxy-3-(2-((1R,4aR,5R,6R,8aR)-6-methoxy-5,8a-dimethyl-2-methylenedecahydronaphthalen-1-yl)ethylidene)dihydrofuran-2(3H)-one] | < 500 nM | > 100% | –
CO[C@@H]1CC[C@@]2(C)C(C/C=C3/C(=O)OC[C@H]3O)=C(C)CC[C@@H]2[C@H]1C [Example 18, (S,E)-4-hydroxy-3-(2-((4aR,5R,6R,8aR)-6-methoxy-2,5,8a-trimethyl-3,4,4a,5,6,7,8,8a-octahydronaphthalen-1-yl)ethylidene)dihydrofuran-2(3H)-one] | – | 30 to 50% | –
C=C1CC[C@H]2[C@@](C)(CC[C@@]3(C)ON=C[C@@]23C)[C@@H]1C/C=C1/C(=O)OC[C@H]1O [Example 14, (S,E)-4-hydroxy-3-(2-((3aR,5aS,6R,9aS,9bR)-3a,5a,9b-trimethyl-7-methylene-3a,4,5,5a,6,7,8,9,9a,9b-decahydronaphtho[1,2-d]isoxazol-6-yl)ethylidene)dihydrofuran-2(3H)-one] | > 2000 nM | > 100% | –
C=C1CC[C@@H]2[C@]3(C)COS(=O)O[C@@H]3CC[C@@]2(C)[C@@H]1C/C=C1/C(=O)OCC1NC(=O)CO (single isomer, unassigned) [Example 41A] | > 2000 nM | – | –
C=C1CC[C@@H]2[C@]3(C)COS(=O)O[C@@H]3CC[C@@]2(C)[C@@H]1C/C=C1/C(=O)OC[C@H]1NC(=O)OC (single isomer, unassigned) [Example 30] | – | – | 51 to 100%
C=C1CC[C@H]2[C@@](C)(CC[C@@]3(C)O[S@@](=O)OC[C@@]23C)[C@@H]1C/C=C1/C(=O)OC[C@H]1O [Example 13, (S,E)-4-hydroxy-3-(2-((3S,4aR,6aS,7R,10aS,10bR)-4a,6a,10b-trimethyl-8-methylene-3-oxidodecahydro-1H-naphtho[2,1-d][1,3,2]dioxathiin-7-yl)ethylidene)dihydrofuran-2(3H)-one] | 500 to 2000 nM | > 100% | –
CC1=CC[C@@H]2[C@@H](C)[C@@](O)(C(F)(F)F)CC[C@@]2(C)[C@@H]1C/C=C1/C(=O)OC[C@H]1O [Example 48, (S,E)-4-hydroxy-3-(2-((1R,4aR,5R,6R,8aR)-6-hydroxy-2,5,8a-trimethyl-6-(trifluoromethyl)-1,4,4a,5,6,7,8,8a-octahydronaphthalen-1-yl)ethylidene)dihydrofuran-2(3H)-one] | > 2000 nM | – | –
CC1=CC[C@@H]2[C@@H](C)[C@](O)(C(F)(F)F)CC[C@@]2(C)[C@@H]1C/C=C1/C(=O)OC[C@H]1O [Example 47, (S,E)-4-hydroxy-3-(2-((1R,4aR,5R,6S,8aR)-6-hydroxy-2,5,8a-trimethyl-6-(trifluoromethyl)-1,4,4a,5,6,7,8,8a-octahydronaphthalen-1-yl)ethylidene)dihydrofuran-2(3H)-one] | > 2000 nM | – | –
C=C1CC[C@@H]2[C@]3(C)COS(=O)O[C@@H]3CC[C@@]2(C)[C@@H]1C/C=C1\C(=O)OC[C@H]1NC=O (stereo partly drawn) [Example 28, N-((3S,Z)-4-(2-((4aR,6aS,7R,10aS,10bR)-6a,10b-dimethyl-8-methylene-3-oxidodecahydro-1H-naphtho[2,1-d][1,3,2]dioxathiin-7-yl)ethylidene)-5-oxotetrahydrofuran-3-yl)formamide] | – | 51 to 100% | –
C=C1CC[C@H]2[C@@](C)(CC[C@@](C)(O)[C@@]2(C)CO)[C@@H]1C/C=C1/C(=O)OC[C@H]1O [Example 7, (S,E)-4-hydroxy-3-(2-((1R,4aS,5R,6R,8a5)-6-hydroxy-5-(hydroxymethyl)-5,6,8a-trimethyl-2-methylenedecahydronaphthalen-1-yl)ethylidene)dihydrofuran-2(3H)-one] | – | 51 to 100% | –
C=C1CC[C@@H]2[C@]3(C)COS(=O)O[C@@H]3CC[C@@]2(C)[C@@H]1C/C=C1/C(=O)OCC1NC(=O)CO (single isomer, unassigned) [Example 41B] | 500 to 2000 nM | – | –
CC(=O)N[C@@H]1COC(=O)/C1=C\CC[C@H]1C2(CC[C@H]3C(C)(C)CCC[C@@]31C)CC2 [Example 36, N—((S,Z)-5-oxo-4-(3-((1′S,4a′S,8a′S)-5′,5′,8a′-trimethyloctahydro-1′H-spiro[cyclopropane-1,2′-naphthalen]-1′-yl)propylidene)tetrahydrofuran-3-yl)acetamide] | > 2000 nM | 51 to 100% | –
CC1(C)CCC[C@@]2(C)[C@H]1CCC1(CC1)[C@@H]2CC/C=C1\C(=O)OC[C@H]1NC=O [Example 34, N-((S,Z)-5-oxo-4-(3-((l′S,4a′S,8a′S)-5′,5′,8a′-trimethyloctahydro-1′H-spiro[cyclopropane-1,2′-naphthalen]-1′-yl)propylidene)tetrahydrofuran-3-yl)formamide] | – | 30 to 50% | –
C=C1CC[C@@H]2[C@@H](C)[C@@H](O)CC[C@@]2(C)[C@@H]1C/C=C1/C(=O)OC[C@H]1O [Example 1, (S,E)-4-hydroxy-3-(2-((1R,4aR,5R,6S,8aR)-6-hydroxy-5,8a-dimethyl-2-methylenedecahydronaphthalen-1-yl)ethylidene)dihydrofuran-2(3H)-one] | 500 to 2000 nM | 51 to 100% | –
C=C1CC[C@@H]2[C@]3(C)CO[S@](=O)O[C@@H]3CC[C@@]2(C)[C@@H]1C/C=C1/C(=O)OC[C@H]1O [Example 8, (S,E)-3-(2-((3S, 4aR, 6aS, 7R, 10aS, 10bR)-6a,10b-dimethyl-8-methylene-3-oxidodecahydro-1H-naphtho[2,1-d][1,3,2]dioxathiin-7-yl)ethylidene)-4-hydroxydihydrofuran-2(3H)-one] | 500 to 2000 nM | > 100% | –
C=C1CC[C@@H]2[C@]3(C)C=NO[C@@H]3CC[C@@]2(C)[C@@H]1C/C=C1/C(=O)OC[C@H]1O [Example 12, (S,E)-3-(2-((3aR,5aS,6R,9aS,9bR)-5a,9b-dimethyl-7-methylene-3a,4,5,5a,6,7,8,9,9a,9b-decahydronaphtho[1,2-d]isoxazol-6-yl)ethylidene)-4-hydroxydihydrofuran-2(3H)-one] | 500 to 2000 nM | – | 51 to 100%
C=C1CC[C@@H]2[C@]3(C)COS(=O)O[C@@H]3CC[C@@]2(C)[C@@H]1C/C=C1/C(=O)OC[C@@H]1NC(=O)OC (single isomer, unassigned) [Example 31] | 500 to 2000 nM | – | > 100%
C=C1CC[C@@H]2[C@]3(C)COS(=O)O[C@@H]3CC[C@@]2(C)[C@@H]1C/C=C1/C(=O)OC[C@H]1NC=O (single isomer, unassigned) [Example 20] | 500 to 2000 nM | > 100% | –
C=C1CC[C@H]2[C@@](C)(CC[C@@]3(C)OS(=O)OC[C@@]23C)[C@@H]1C/C=C1/C(=O)OCC1NC=O (stereo partly drawn) [Example 22, N-((E)-5-oxo-4-(2-((4aR,6aS,7R,10aS,10bR)-4a,6a,10b-trimethyl-8-methylene-3-oxidodecahydro-1H-naphtho[2,1-d][1,3,2]dioxathiin-7-yl)ethylidene)tetrahydrofuran-3-yl)formamide] | 500 to 2000 nM | 51 to 100% | –
C=C1CC[C@@H]2[C@@H](C)[C@@](C)(O)CC[C@@]2(C)[C@@H]1C/C=C1/C(=O)OC[C@H]1O [Example 5, (S,E)-4-hydroxy-3-(2-((1R,4aR,5R,6S,8aR)-6-hydroxy-5,6,8a-trimethyl-2-methylenedecahydronaphthalen-1-yl)ethylidene)dihydrofuran-2(3H)-one] | < 500 nM | > 100% | –
